# Results reported in the supplement of paper PMC10307832.
# Experiments:
# Assay in all cases: relative viability (nuclei count vs DMSO), 5 days (fraction); higher = more cells survive
# FH535 + Bortezomib = compound: CC1=C(C=CC(=C1)[N+](=O)[O-])NS(=O)(=O)C2=C(C=CC(=C2)Cl)Cl [FH535] + CC(C)C[C@H](NC(=O)[C@H](Cc1ccccc1)NC(=O)c1cnccn1)B(O)O [Bortezomib] (partner 0.002 µM)
# In short: (§1)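 Five library-drug doses in √10 steps were combined with a fixed anchor-drug dose, or a single drug was given alone, by pin tool to lung cancer cell lines in 1536-well plates the day after seeding. Nuclei were stained and counted after 5 days. Relative viability is the nuclei count in treated wells over that in vehicle wells, taken as the median of duplicate plates.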
# FH535 + Pictilisib = compound: CC1=C(C=CC(=C1)[N+](=O)[O-])NS(=O)(=O)C2=C(C=CC(=C2)Cl)Cl [FH535] + CS(=O)(=O)N1CCN(Cc2cc3nc(-c4cccc5[nH]ncc45)nc(N4CCOCC4)c3s2)CC1 [Pictilisib] (partner 1 µM)
# In short: as §1
# FH535 + Crizotinib = compound: CC1=C(C=CC(=C1)[N+](=O)[O-])NS(=O)(=O)C2=C(C=CC(=C2)Cl)Cl [FH535] + C[C@@H](Oc1cc(-c2cnn(C3CCNCC3)c2)cnc1N)c1c(Cl)ccc(F)c1Cl [Crizotinib] (partner 1 µM)
# In short: as §1
# FH535 + Alpelisib = compound: CC1=C(C=CC(=C1)[N+](=O)[O-])NS(=O)(=O)C2=C(C=CC(=C2)Cl)Cl [FH535] + Cc1nc(NC(=O)N2CCC[C@H]2C(N)=O)sc1-c1ccnc(C(C)(C)C(F)(F)F)c1 [Alpelisib] (partner 2 µM)
# In short: as §1
# FH535 + Linsitinib = compound: CC1=C(C=CC(=C1)[N+](=O)[O-])NS(=O)(=O)C2=C(C=CC(=C2)Cl)Cl [FH535] + C[C@]1(O)C[C@@H](c2nc(-c3ccc4ccc(-c5ccccc5)nc4c3)c3c(N)nccn32)C1 [Linsitinib] (partner 1 µM)
# In short: as §1
Cell Line,relative viability (FH535 + Bortezomib; first compound 0.04 µM),relative viability (FH535 + Bortezomib; first compound 0.1265 µM),relative viability (FH535 + Bortezomib; first compound 0.4 µM),relative viability (FH535 + Bortezomib; first compound 1.265 µM),relative viability (FH535 + Pictilisib; first compound 0.04 µM),relative viability (FH535 + Pictilisib; first compound 0.1265 µM),relative viability (FH535 + Pictilisib; first compound 0.4 µM),relative viability (FH535 + Pictilisib; first compound 1.265 µM),relative viability (FH535 + Crizotinib; first compound 0.04 µM),relative viability (FH535 + Crizotinib; first compound 0.1265 µM),relative viability (FH535 + Crizotinib; first compound 0.4 µM),relative viability (FH535 + Crizotinib; first compound 1.265 µM),relative viability (FH535 + Alpelisib; first compound 0.04 µM),relative viability (FH535 + Alpelisib; first compound 0.1265 µM),relative viability (FH535 + Alpelisib; first compound 0.4 µM),relative viability (FH535 + Alpelisib; first compound 1.265 µM),relative viability (FH535 + Linsitinib; first compound 0.04 µM),relative viability (FH535 + Linsitinib; first compound 0.1265 µM),relative viability (FH535 + Linsitinib; first compound 0.4 µM),relative viability (FH535 + Linsitinib; first compound 1.265 µM)
LXF-289,0.96,0.996,0.928,0.723,0.69,0.793,0.758,0.681,0.795,0.832,0.74,0.567,0.958,0.98,0.91,0.794,0.949,0.938,0.897,0.697
NCI-H23,–,1.25,1.04,1.11,–,0.41,0.483,0.508,–,0.555,0.584,0.581,–,0.761,0.636,0.631,–,0.633,0.628,0.567
NCI-H322M,1.21,1.14,1.07,1.08,0.471,0.539,0.436,0.497,0.819,0.906,1.03,1.04,0.722,0.783,0.83,0.761,0.982,1.07,1,0.847
NCI-H441,0.356,0.351,0.376,0.293,0.434,0.469,0.443,0.423,0.603,0.797,0.768,0.628,0.529,0.638,0.686,0.605,0.573,0.447,0.521,0.615
NCI-H460,0.984,1.24,1.16,0.668,0.344,0.338,0.335,0.329,1.04,0.991,1.08,0.652,0.388,0.601,0.51,0.449,0.902,0.891,0.791,0.678
NCI-H520,0.304,0.239,0.522,0.601,0.274,0.201,0.303,0.279,0.716,0.893,0.803,0.754,0.825,0.931,0.952,0.799,0.982,0.959,0.915,0.873
NCI-H596,0.915,1.09,1.19,0.952,0.347,0.385,0.39,0.344,1.02,1.02,1.08,0.929,0.527,0.487,0.481,0.487,1.1,1.13,1.1,1.01
NCI-H647,0.964,0.584,0.818,0.95,0.435,0.458,0.434,0.362,1.26,1.02,1.1,0.895,1.18,1.41,1.14,0.935,1.09,1.11,1.17,0.912
NCI-H650,0.704,0.854,0.794,0.506,0.766,0.972,0.959,0.643,0.694,0.854,0.738,0.567,0.975,1.06,1.12,0.774,0.687,1.09,0.832,0.603
NCI-H661,0.735,0.839,0.767,0.532,0.473,0.381,0.392,0.536,1.08,0.955,0.931,0.797,0.607,0.55,0.518,0.374,0.521,0.537,0.539,0.493
NCI-H727,0.687,0.59,0.75,0.721,0.482,0.315,0.401,0.366,0.917,0.848,0.823,0.783,0.542,0.523,0.518,0.533,0.367,0.192,0.293,0.216
NCI-H838,0.701,0.713,0.694,0.575,0.462,0.427,0.379,0.387,0.959,0.962,0.797,0.654,0.917,1.06,0.962,0.765,0.987,1.03,0.938,0.908
NCI-H1355,1.09,1.2,1.15,1.03,0.362,0.503,0.378,0.33,0.929,1.14,0.977,0.555,0.786,0.87,0.818,0.401,0.745,0.822,0.78,0.633
NCI-H1437,0.427,0.624,0.303,0.286,0.456,0.375,0.427,0.323,0.9,0.831,0.772,0.344,0.982,0.968,0.897,0.468,1.02,0.962,0.879,0.421
NCI-H1563,0.835,1.04,0.816,0.719,0.631,0.657,0.627,0.637,0.871,0.948,0.88,0.757,0.89,0.931,0.981,0.837,1.2,1.07,1.25,1.04
NCI-H1651,0.876,0.911,0.889,0.779,0.572,0.504,0.562,0.509,0.856,0.81,0.853,0.611,1,1.07,1.04,0.69,0.999,0.949,0.942,0.731

Cell Line,relative viability (FH535 + Bortezomib; first compound 0.04 µM),relative viability (FH535 + Bortezomib; first compound 0.1265 µM),relative viability (FH535 + Bortezomib; first compound 0.4 µM),relative viability (FH535 + Bortezomib; first compound 1.265 µM),relative viability (FH535 + Pictilisib; first compound 0.04 µM),relative viability (FH535 + Pictilisib; first compound 0.1265 µM),relative viability (FH535 + Pictilisib; first compound 0.4 µM),relative viability (FH535 + Pictilisib; first compound 1.265 µM),relative viability (FH535 + Crizotinib; first compound 0.04 µM),relative viability (FH535 + Crizotinib; first compound 0.1265 µM),relative viability (FH535 + Crizotinib; first compound 0.4 µM),relative viability (FH535 + Crizotinib; first compound 1.265 µM),relative viability (FH535 + Alpelisib; first compound 0.04 µM),relative viability (FH535 + Alpelisib; first compound 0.1265 µM),relative viability (FH535 + Alpelisib; first compound 0.4 µM),relative viability (FH535 + Alpelisib; first compound 1.265 µM),relative viability (FH535 + Linsitinib; first compound 0.04 µM),relative viability (FH535 + Linsitinib; first compound 0.1265 µM),relative viability (FH535 + Linsitinib; first compound 0.4 µM),relative viability (FH535 + Linsitinib; first compound 1.265 µM)
NCI-H1666,0.725,0.882,0.705,0.625,0.481,0.443,0.404,0.4,1.06,0.979,0.956,0.871,1.04,0.956,1.01,0.693,0.88,0.78,0.753,0.55
NCI-H1703,0.413,0.288,0.425,0.317,0.195,0.213,0.257,0.219,0.922,0.63,0.589,0.408,0.403,0.362,0.327,0.269,1.02,0.635,0.561,0.564
NCI-H1734,0.775,0.894,0.771,0.828,0.458,0.523,0.489,0.416,0.625,0.691,0.648,0.588,0.651,0.715,0.693,0.617,0.838,0.939,0.876,0.866
NCI-H1755,0.982,0.951,0.793,0.817,0.341,0.449,0.421,0.415,0.931,0.859,0.801,0.776,0.941,0.897,0.853,0.867,0.968,0.996,0.912,0.919
NCI-H1792,0.971,0.932,0.835,0.688,0.251,0.289,0.317,0.256,0.967,0.963,0.907,0.632,0.64,0.73,0.664,0.53,0.54,0.601,0.527,0.396
NCI-H1915,0.955,0.855,0.986,0.904,0.732,0.903,0.835,0.77,0.907,0.871,0.867,0.688,1,1.07,1.05,0.738,1.08,1.12,1.08,0.896
NCI-H1975,0.312,0.381,0.374,0.338,0.274,0.274,0.296,0.244,1.06,1.08,0.948,0.842,0.614,0.682,0.607,0.487,0.95,0.986,0.925,0.784
NCI-H1993,1.01,0.927,0.895,0.811,0.679,0.747,0.769,0.709,0.809,0.911,0.589,0.609,0.629,0.78,0.662,0.596,0.703,0.734,0.673,0.745
NCI-H2009,0.92,0.984,0.896,0.58,0.753,0.87,0.724,0.763,1.1,1.06,0.903,0.677,1.15,1.16,1.17,0.959,1.2,1.09,1.13,1.05
NCI-H2023,0.816,0.995,1.03,0.726,0.209,0.226,0.252,0.231,0.761,0.639,0.676,0.723,0.659,0.629,0.686,0.604,0.677,0.631,0.745,0.629
NCI-H2085,1.14,0.917,0.977,0.819,0.407,0.568,0.481,0.486,1.03,0.969,0.705,0.695,0.959,0.977,0.941,0.675,0.858,0.924,0.892,0.724
NCI-H2087,0.7,0.57,0.719,0.528,0.885,0.885,0.731,0.52,0.96,0.774,0.765,0.415,1.11,1.04,0.887,0.613,0.98,0.994,0.87,0.512
NCI-H2126,1.07,1.1,0.986,0.879,0.472,0.497,0.472,0.425,0.976,0.984,0.941,0.683,0.744,0.744,0.718,0.626,0.746,0.719,0.705,0.619
NCI-H2228,0.933,0.81,0.839,0.829,0.327,0.416,0.369,0.305,0.523,0.606,0.486,0.388,0.687,0.669,0.911,0.63,0.88,0.668,0.611,0.385
NCI-H2347,0.843,1,1.02,0.627,0.484,0.591,0.639,0.726,0.677,0.617,0.807,0.649,1.01,1.09,0.966,0.837,1.02,1.05,0.902,0.812
